Data as given in ChEMBL document CHEMBL1201862, “PubChem BioAssay data set” (2004).
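Where inhibition never reached the appropriate level, the endpoint shown equals the highest concentration tested. Otherwise, values were interpolated linearly from a five-concentration, 48-hour dose response in 96-well plates. GI50: concentration for 50% inhibition of growth.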 Calls of active or inactive are those of the source. No stated cut-off is given here; in the data, active = GI50 up to about 1.1 µM and inactive = higher.

How the values were obtained:
Experiment in all cases: NCI tumour cell line growth inhibition, 48 h
HOP-92 = system: HOP-92
COLO 205 = system: COLO 205
NCI-H460 = system: NCI-H460
OVCAR-3 = system: OVCAR-3
HT-29 = system: HT-29
HL-60 = system: HL-60
MCF7 = system: MCF7
KM12 = system: KM12
MDA-MB-435 = system: MDA-MB-435
RPMI-8226 = system: RPMI-8226
A498 = system: A498
NCI-H522 = system: NCI-H522
MDA-N = system: MDA-N
T47D = system: T47D
OVCAR-5 = system: OVCAR-5
SF-539 = system: SF-539
SW-620 = system: SW-620
SNB-19 = system: SNB-19
U-251 = system: U-251
SF-268 = system: SF-268
UACC-257 = system: UACC-257
DU-145 = system: DU-145
IGROV-1 = system: IGROV-1
Malme-3M = system: Malme-3M
SK-MEL-28 = system: SK-MEL-28
HCT-116 = system: HCT-116
OVCAR-4 = system: OVCAR-4
NCI/ADR-RES = system: NCI/ADR-RES
SK-MEL-2 = system: SK-MEL-2
SF-295 = system: SF-295
A549 = system: A549
PC-3 = system: PC-3
MOLT-4 = system: MOLT-4
BT-549 = system: BT-549
SN12C = system: SN12C
HOP-62 = system: HOP-62
LOX IMVI = system: LOX IMVI
HCC 2998 = system: HCC 2998
UACC-62 = system: UACC-62
HCT-15 = system: HCT-15
NCI-H23 = system: NCI-H23
M14 = system: M14
CAKI-1 = system: CAKI-1
ACHN = system: ACHN
NCI-H226 = system: NCI-H226
Hs-578T = system: Hs-578T
786-0 = system: 786-0
EKVX = system: EKVX
SNB-75 = system: SNB-75
SK-OV-3 = system: SK-OV-3
SK-MEL-5 = system: SK-MEL-5
CCRF-CEM = system: CCRF-CEM
MDA-MB-231 = system: MDA-MB-231
OVCAR-8 = system: OVCAR-8
K562 = system: K562
TK-10 = system: TK-10
UO-31 = system: UO-31
RXF 393 = system: RXF 393

Which GI50 (HOP-92) does the source give for `COc1ccc(C2=C(N)c3c(Cl)cccc3C2=O)cc1` here?
Its GI50 is 34.9 µM (inactive).

And the GI50 (COLO 205)?
Its GI50 is > 100 µM (inactive).

What about the GI50 (NCI-H460) of the same compound?
The GI50 was > 100 µM (inactive).

And the GI50 (OVCAR-3)?
The GI50 was > 100 µM (inactive).

And the GI50 (HT-29)?
Its GI50 is > 100 µM (inactive).

What about the GI50 (HL-60) of the same compound?
Its GI50 is > 100 µM (inactive).

What about the GI50 (MCF7) of the same compound?
Its GI50 is > 100 µM (inactive).

What about the GI50 (KM12) of the same compound?
The GI50 was > 100 µM (inactive).

And the GI50 (MDA-MB-435)?
The GI50 was > 100 µM (inactive).

What about the GI50 (RPMI-8226) of the same compound?
Its GI50 is > 100 µM (inactive).

And the GI50 (A498)?
The GI50 was > 100 µM (inactive).

What about the GI50 (NCI-H522) of the same compound?
The GI50 was > 100 µM (inactive).

And the GI50 (MDA-N)?
Its GI50 is > 100 µM (inactive).

What about the GI50 (T47D) of the same compound?
Its GI50 is 78 µM (inactive).

What about the GI50 (OVCAR-5) of the same compound?
Its GI50 is > 100 µM (inactive).

And the GI50 (SF-539)?
Its GI50 is > 100 µM (inactive).

And the GI50 (SW-620)?
The GI50 was > 100 µM (inactive).

What about the GI50 (SNB-19) of the same compound?
Its GI50 is 22 µM (inactive).

What about the GI50 (U-251) of the same compound?
Its GI50 is 49.3 µM (inactive).

And the GI50 (SF-268)?
The GI50 was > 100 µM (inactive).

And the GI50 (UACC-257)?
Its GI50 is > 100 µM (inactive).

And the GI50 (DU-145)?
Its GI50 is > 100 µM (inactive).

And the GI50 (IGROV-1)?
Its GI50 is > 100 µM (inactive).

And the GI50 (Malme-3M)?
Its GI50 is > 100 µM (inactive).

What about the GI50 (SK-MEL-28) of the same compound?
The GI50 was > 100 µM (inactive).

And the GI50 (HCT-116)?
Its GI50 is 83.9 µM (inactive).

What about the GI50 (OVCAR-4) of the same compound?
Its GI50 is > 100 µM (inactive).

And the GI50 (NCI/ADR-RES)?
Its GI50 is 50 µM (inactive).

What about the GI50 (SK-MEL-2) of the same compound?
Its GI50 is > 100 µM (inactive).

What about the GI50 (SF-295) of the same compound?
The GI50 was > 100 µM (inactive).

What about the GI50 (A549) of the same compound?
The GI50 was > 100 µM (inactive).

And the GI50 (PC-3)?
The GI50 was > 100 µM (inactive).

And the GI50 (MOLT-4)?
The GI50 was 95.1 µM (inactive).

What about the GI50 (BT-549) of the same compound?
Its GI50 is > 100 µM (inactive).

What about the GI50 (SN12C) of the same compound?
Its GI50 is > 100 µM (inactive).

What about the GI50 (HOP-62) of the same compound?
Its GI50 is 70 µM (inactive).

What about the GI50 (LOX IMVI) of the same compound?
Its GI50 is > 100 µM (inactive).

What about the GI50 (HCC 2998) of the same compound?
The GI50 was > 100 µM (inactive).

And the GI50 (UACC-62)?
The GI50 was > 100 µM (inactive).

And the GI50 (HCT-15)?
Its GI50 is greater than 100 µM.

What about the GI50 (NCI-H23) of the same compound?
Its GI50 is 32.6 µM (inactive).

What about the GI50 (M14) of the same compound?
The GI50 was > 100 µM (inactive).

And the GI50 (CAKI-1)?
The GI50 was > 100 µM (inactive).

And the GI50 (ACHN)?
The GI50 was > 100 µM (inactive).

And the GI50 (NCI-H226)?
Its GI50 is > 100 µM (inactive).

What about the GI50 (Hs-578T) of the same compound?
Its GI50 is 26.1 µM (inactive).

What about the GI50 (786-0) of the same compound?
Its GI50 is > 100 µM (inactive).

What about the GI50 (EKVX) of the same compound?
The GI50 was > 100 µM (inactive).

And the GI50 (SNB-75)?
Its GI50 is > 100 µM (inactive).

And the GI50 (SK-OV-3)?
Its GI50 is 55.3 µM (inactive).

And the GI50 (SK-MEL-5)?
Its GI50 is > 100 µM (inactive).

What about the GI50 (CCRF-CEM) of the same compound?
The GI50 was > 100 µM (inactive).

And the GI50 (MDA-MB-231)?
The GI50 was 80.2 µM (inactive).

What about the GI50 (OVCAR-8) of the same compound?
Its GI50 is 53.1 µM (inactive).

How did the GI50 (COLO 205) turn out when `CCCNC(=O)NNC(=O)c1c[nH]c2nc(C)ccc2c1=O` was run?
The GI50 was > 100 µM (inactive).

And the GI50 (NCI-H460)?
Its GI50 is > 100 µM (inactive).

What about the GI50 (OVCAR-3) of the same compound?
Its GI50 is > 100 µM (inactive).

And the GI50 (HT-29)?
Its GI50 is > 100 µM (inactive).

What about the GI50 (HL-60) of the same compound?
The GI50 was > 100 µM (inactive).

What about the GI50 (MCF7) of the same compound?
The GI50 was > 100 µM (inactive).

What about the GI50 (KM12) of the same compound?
Its GI50 is > 100 µM (inactive).

What about the GI50 (MDA-MB-435) of the same compound?
Its GI50 is > 100 µM (inactive).

And the GI50 (K562)?
Its GI50 is > 100 µM (inactive).

And the GI50 (RPMI-8226)?
Its GI50 is > 100 µM (inactive).

And the GI50 (A498)?
Its GI50 is > 100 µM (inactive).

What about the GI50 (NCI-H522) of the same compound?
The GI50 was > 100 µM (inactive).

And the GI50 (MDA-N)?
Its GI50 is > 100 µM (inactive).

And the GI50 (T47D)?
The GI50 was > 100 µM (inactive).

And the GI50 (OVCAR-5)?
Its GI50 is > 100 µM (inactive).

And the GI50 (SW-620)?
The GI50 was > 100 µM (inactive).

What about the GI50 (SNB-19) of the same compound?
The GI50 was > 100 µM (inactive).

And the GI50 (U-251)?
Its GI50 is > 100 µM (inactive).

What about the GI50 (SF-268) of the same compound?
The GI50 was > 100 µM (inactive).

What about the GI50 (UACC-257) of the same compound?
The GI50 was > 100 µM (inactive).

And the GI50 (DU-145)?
Its GI50 is > 100 µM (inactive).

What about the GI50 (IGROV-1) of the same compound?
Its GI50 is > 100 µM (inactive).

And the GI50 (Malme-3M)?
The GI50 was > 100 µM (inactive).

What about the GI50 (TK-10) of the same compound?
Its GI50 is > 100 µM (inactive).

And the GI50 (SK-MEL-28)?
Its GI50 is > 100 µM (inactive).

What about the GI50 (HCT-116) of the same compound?
Its GI50 is > 100 µM (inactive).

And the GI50 (OVCAR-4)?
The GI50 was > 100 µM (inactive).

What about the GI50 (NCI/ADR-RES) of the same compound?
The GI50 was > 100 µM (inactive).

And the GI50 (SK-MEL-2)?
The GI50 was > 100 µM (inactive).

What about the GI50 (SF-295) of the same compound?
Its GI50 is > 100 µM (inactive).

And the GI50 (UO-31)?
Its GI50 is > 100 µM (inactive).

What about the GI50 (A549) of the same compound?
Its GI50 is > 100 µM (inactive).

And the GI50 (PC-3)?
Its GI50 is > 100 µM (inactive).

And the GI50 (MOLT-4)?
Its GI50 is > 100 µM (inactive).

And the GI50 (BT-549)?
The GI50 was > 100 µM (inactive).

What about the GI50 (SN12C) of the same compound?
Its GI50 is > 100 µM (inactive).

And the GI50 (HOP-62)?
The GI50 was > 100 µM (inactive).

What about the GI50 (LOX IMVI) of the same compound?
The GI50 was > 100 µM (inactive).

What about the GI50 (UACC-62) of the same compound?
The GI50 was > 100 µM (inactive).

And the GI50 (HCT-15)?
The GI50 was greater than 100 µM.

And the GI50 (NCI-H23)?
The GI50 was > 100 µM (inactive).

And the GI50 (M14)?
Its GI50 is > 100 µM (inactive).

What about the GI50 (CAKI-1) of the same compound?
Its GI50 is > 100 µM (inactive).

And the GI50 (ACHN)?
The GI50 was > 100 µM (inactive).

What about the GI50 (RXF 393) of the same compound?
The GI50 was > 100 µM (inactive).

What about the GI50 (NCI-H226) of the same compound?
The GI50 was > 100 µM (inactive).

What about the GI50 (Hs-578T) of the same compound?
The GI50 was > 100 µM (inactive).

What about the GI50 (786-0) of the same compound?
Its GI50 is > 100 µM (inactive).

What about the GI50 (EKVX) of the same compound?
The GI50 was > 100 µM (inactive).

What about the GI50 (SK-MEL-5) of the same compound?
Its GI50 is > 100 µM (inactive).

And the GI50 (CCRF-CEM)?
The GI50 was > 100 µM (inactive).

What about the GI50 (MDA-MB-231) of the same compound?
Its GI50 is > 100 µM (inactive).

And the GI50 (OVCAR-8)?
The GI50 was > 100 µM (inactive).
